Data from ChEMBL document CHEMBL4808253, “Discovery of 1,3,4-oxadiazole derivatives as potential antitumor agents inhibiting the programmed cell death-1/programmed cell death-ligand 1 interaction” (Bioorg Med Chem, 2021).
Activity calls are given as the source filed them. The calls are words filed in the database; no cut-off is given here.

Key:
CT26 [1] = assay: Antitumor activity against mouse CT26 cells allografted in BALB/c mouse assessed as tumor growth inhibition at 30 mg/kg, ip for 48 hrs measured for 14 days relative to control; assay type: functional; settings: 336 h, time 14 day, read-out: TGI
[2] = Toxicity in BALB/c mouse allografted with mouse CT26 cells assessed as body weight change at 30 mg/kg, ip for 48 hrs measured for 14 days relative to control; assay type: organism-based; settings: in vivo, 336 h, time 14 day
[3] = Toxicity in BALB/c mouse allografted with mouse CT26 cells assessed as unusual behaviour at 30 mg/kg, ip for 48 hrs measured for 14 days relative to control; assay type: organism-based; settings: in vivo, 336 h, time 14 day
[4] = target: T1, Programmed cell death protein 1/Programmed cell death 1 ligand 1 (Homo sapiens, UniProt Q15116+Q9NZQ7); assay: Inhibition of PD1/PD-L1 (unknown origin) protein-protein interaction measured after 135 mins by TR-FRET assay relative to control; assay type: protein-complex assay
T1 sequence (Q15116 whole entry): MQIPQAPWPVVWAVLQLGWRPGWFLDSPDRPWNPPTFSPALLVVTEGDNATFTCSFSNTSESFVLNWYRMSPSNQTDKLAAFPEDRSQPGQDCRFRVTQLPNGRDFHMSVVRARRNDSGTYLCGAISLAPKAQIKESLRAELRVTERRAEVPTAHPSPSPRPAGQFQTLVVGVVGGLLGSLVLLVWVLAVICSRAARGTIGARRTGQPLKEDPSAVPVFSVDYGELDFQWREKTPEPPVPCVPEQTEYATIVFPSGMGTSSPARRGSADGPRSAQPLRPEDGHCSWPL
T1 sequence (Q9NZQ7 whole entry): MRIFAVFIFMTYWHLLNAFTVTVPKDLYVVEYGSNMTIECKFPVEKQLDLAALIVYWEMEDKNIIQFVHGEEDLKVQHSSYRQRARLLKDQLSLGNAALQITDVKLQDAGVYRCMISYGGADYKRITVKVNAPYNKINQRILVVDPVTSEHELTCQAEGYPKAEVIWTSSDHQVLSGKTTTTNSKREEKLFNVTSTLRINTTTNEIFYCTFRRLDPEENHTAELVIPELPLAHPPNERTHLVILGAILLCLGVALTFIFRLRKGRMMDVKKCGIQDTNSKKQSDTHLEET

[5] = target: T1, Programmed cell death protein 1/Programmed cell death 1 ligand 1; assay: Inhibition of PD1/PD-L1 (unknown origin); assay type: protein-complex assay
CT26 [6] = assay: Antitumor activity against mouse CT26 cells allografted in BALB/c mouse assessed as tumor growth inhibition at 15 mg/kg, ip for 48 hrs measured for 14 days relative to control; assay type: functional; settings: 336 h, time 14 day, read-out: TGI
CT26 [7] = assay: Antiproliferative activity against mouse CT26 cells assessed as inhibition of cell growth incubated for 48 hrs by MTT assay; assay type: functional, cell-based; settings: CT26, 48 h
CT26 [8] = assay: Antiproliferative activity against […] cells assessed as inhibition of cell growth at 11.11 uM incubated for 48 hrs by MTT assay; assay type: functional; settings: Mus musculus
[9] = Toxicity in BALB/c mouse allografted with mouse CT26 cells assessed as body weight change at 15 mg/kg, ip for 48 hrs measured for 14 days relative to control; assay type: organism-based; settings: in vivo, 336 h, time 14 day
[10] = Toxicity in BALB/c mouse allografted with mouse CT26 cells assessed as unusual behaviour at 15 mg/kg, ip for 48 hrs measured for 14 days relative to control; assay type: organism-based; settings: in vivo, 336 h, time 14 day
CT26 [11] = assay: Antitumor activity against mouse CT26 cells allografted in BALB/c mouse assessed as tumor growth inhibition at 15 mg/kg, ip for 48 hrs measured for 14 days in presence of 5-Fu relative to control; assay type: functional; settings: read-out: TGI
CT26 [12] = assay: Antitumor activity against […] in BALB/c mouse assessed as increase in infiltration of CD4+ T cells into tumor cells at 15 mg/kg, ip for 48 hrs measured for 14 days relative to control; assay type: functional, organism-based
CT26 [13] = assay: Antitumor activity against […] in BALB/c mouse assessed as increase in infiltration of CD4+ T cells into tumor cells at 15 mg/kg, ip for 48 hrs in presence of 5-Fu by immunohistochemistry analysis; assay type: functional, organism-based
CT26 [14] = assay: Antitumor activity against mouse CT26 cells allografted in BALB/c mouse assessed as tumor growth inhibition at 15 mg/kg, ip for 24 hrs measured for 14 days relative to control; assay type: functional; settings: 336 h, time 14 day, read-out: TGI
[15] = Toxicity in BALB/c mouse allografted with mouse CT26 cells assessed as body weight change at 15 mg/kg, ip for 24 hrs measured for 14 days relative to control; assay type: organism-based; settings: in vivo, 336 h, time 14 day
[16] = Toxicity in BALB/c mouse allografted with mouse CT26 cells assessed as unusual behaviour at 15 mg/kg, ip for 24 hrs measured for 14 days relative to control; assay type: organism-based; settings: in vivo, 336 h, time 14 day

O=c1[nH]cc(F)c(=O)[nH]1 [FLUOROURACIL]
inhibition in vivo at 30 mg/kg (CT26 [1]): 29.8% | Activity [2]: Non-Toxic | Activity [3]: Non-Toxic

Cc1c(COc2ccc(CNC(CO)(CO)CO)c(OCc3nnc(-c4ccccc4)o3)c2)cccc1-c1cccc(OCCCN2CCOCC2)c1
IC50 [4]: 642 nM

CS(=O)(=O)c1cncc(COc2nc(O[C@H]3CCc4c(-c5cccc6c5CC[C@@H]6Oc5nc(OCc6cncc(S(C)(=O)=O)c6)c(CN6C[C@@H](O)C[C@H]6C(=O)O)cc5Cl)cccc43)c(Cl)cc2CN2C[C@@H](O)C[C@H]2C(=O)O)c1
IC50 [5]: 0.051 nM

Cc1c(COc2ccc(CNC(CO)(CO)CO)c(OCc3nnc(-c4ccccc4)o3)c2)cccc1-c1cccc(OCCCN2CCC(CO)CC2)c1
inhibition in vivo at 15 mg/kg (CT26 [6]): 35.7% | IC50 (CT26 [7]): 19800 nM | IC50 [4]: 38 nM | inhibition at 11.11 µM (CT26 [8]): 75% | Activity [9]: Non-Toxic | Activity [10]: Non-Toxic | inhibition in vivo at 15 mg/kg (CT26 [11]): 64.6% | Activity (CT26 [12]): Active | Activity (CT26 [13]): Active

C[C@@](CO)(NCc1cc(Cl)c(O[C@H]2CCc3c(-c4cccc5c4CC[C@@H]5Oc4nc(OCc5cncc(S(C)(=O)=O)c5)c(CN[C@@](C)(CO)C(=O)O)cc4Cl)cccc32)nc1OCc1cncc(S(C)(=O)=O)c1)C(=O)O
IC50 [5]: 0.058 nM

Cc1c(-c2nc3cc(CN4CCCC[C@H]4C(=O)O)cc(Cl)c3o2)cccc1-c1cccc(NC(=O)c2ccc(CNCCO)cn2)c1Cl
IC50 [5]: < 10 nM

Cc1c(COc2ccc(CNC(CO)(CO)CO)c(OCc3nc(-c4ccc(F)cc4)cs3)c2)cccc1-c1cccc(OCCCN2CCC(O)CC2)c1C
IC50 [4]: 167 nM

Cc1c(-c2nc3cc(CN4CC[C@@](C)(C(=O)O)C4)cc(C#N)c3o2)cccc1-c1cccc(NC(=O)c2nc3c(n2C)CCN(C[C@@H](C)O)C3)c1Cl
IC50 [5]: < 10 nM

Cc1c(COc2ccc(CNC(CO)(CO)CO)c(OCc3nc(-c4ccc(F)cc4)cs3)c2)cccc1-c1cccc(OCCCN2CCC(CO)CC2)c1
IC50 [4]: 398 nM

Cc1ccccc1-c1cccc(COc2ccc(CNC(CO)(CO)CO)c(OCc3nnc(-c4ccccc4)o3)c2)c1C
IC50 [4]: 150 nM

COc1nc(OCc2cccc(-c3ccccc3)c2C)ccc1CNCCNC(C)=O
IC50 (CT26 [7]): 3350 nM | inhibition at 11.11 µM (CT26 [8]): 75% | inhibition in vivo at 15 mg/kg (CT26 [14]): 22.9% | Activity [15]: Non-Toxic | Activity [16]: Non-Toxic
